Laboratory results as given in patent publication US6479499B1.
≈ marks a conversion by molar mass, not a printed value. Like-named read-outs stand apart in the source and are kept apart here.

Assays:
[1] = tested on: platelet aggregation induced by arachidonic acid (AA); assay: Antiplatelet assay, arachidonic acid-induced aggregation; assay type: cell-based, rabbit; conditions: for IC50 / Percent aggregation, AA: AA 100 μM
Experimental: (§1) c. Antiplatelet assay. Blood, collected from the marginal ear vein of rabbits was mixed with EDTA to a final concentration of 6 mM and centrifuged at 90 g for 10 mm at room temperature to obtain platelet-rich plasma. The latter was further centrifuged at 500 g for 10 mm and the platelets were washed with Tyrode's solution without EDTA. After centrifugation at the same conditions, the platelets were suspended in Tyrode's solution with the following compositions (mM): NaCl (136.8), KCl (2.8), NaNCO3(11.9), MgCl2(1.1), NaH2PO4(0.33), CaCl2(1.0), and glucose (11.2). Platelet numbers were determined with a Coulter Counter (Model ZM) and adjusted to 4.5×10^8 platelets/ml.
(§2) Aggregation was measured by the turbidimetric method [O'brien, J. R. J. Clin. Pathol. 1962, 15,452] with a dual-channel Lumi aggregometer (Model 1020, Payton, Canada). All glass ware was siliconized. Test compounds were added one minute before the addition of the aggregation inducer and the platelet suspension was stirred at 900 rpm. The percentage of aggregation was calculated as previously described [Teng, C. M.; Chen, W. Y.; Ko, W. C.; Ouyang, C. Biochem. Biophys. Acta. 1987, 924, 375].

[2] = tested on: epidermoid carcinoma of the nasopharynx (KB); assay: In vitro cytotoxicity, KB; conditions: Homo sapiens; for IC50: 96 h, read-out: ED50 KB; for inhibition at 20 µg/mL: read-out: Inhibition at highest test concentration (in brackets), KB
[3] = tested on: P-gp-expressing epidermoid carcinoma of the nasopharynx (KB-VIN); assay: In vitro cytotoxicity, KB-VIN; conditions: Homo sapiens, KBVIN; for IC50: 96 h, read-out: ED50 KB-VIN
melanoma (SKMEL-2) = assay: In vitro cytotoxicity, SKMEL-2; conditions: for IC50 / inhibition at 20 µg/mL: Homo sapiens; for IC50: SK-MEL-2, 96 h, read-out: ED50 SKMEL-2; for Inhibition value of plateau-dose response (in brackets), SKMEL-2: inhibition plateaus over broad dose range; for inhibition at 20 µg/mL: SK-MEL-2, read-out: Inhibition at highest test concentration (in brackets), SKMEL-2
breast cancer (MCF-7) = assay: In vitro cytotoxicity, MCF-7; conditions: Homo sapiens; for IC50: MCF7, 96 h, read-out: ED50 MCF-7; for inhibition at 20 µg/mL: MCF7, read-out: Inhibition at highest test concentration (in brackets), MCF-7
bovine brain tubulin = assay: Tubulin polymerization assay (antimicrotubule assay); conditions: read-out: ITP (inhibition of tubulin polymerization) IC50; tubulin […] (12 μM), 26° C., 20 min
[4] = tested on: human ovarian cancer (1A9); assay: In vitro cytotoxicity, 1A9; conditions: 96 h, read-out: ED50 1A9
prostate cancer (PC3) = assay: In vitro cytotoxicity, PC3; conditions: Homo sapiens; for IC50: 96 h, read-out: ED50 PC3; for inhibition at 20 µg/mL: read-out: Inhibition at highest test concentration (in brackets), PC3
bone (HOS) = assay: In vitro cytotoxicity, HOS; conditions: Homo sapiens; for IC50: 96 h, read-out: ED50 HOS; for inhibition at 20 µg/mL: read-out: Inhibition at highest test concentration (in brackets), HOS
lung carcinoma (A-549) = assay: In vitro cytotoxicity, A-549; conditions: Homo sapiens; for IC50: A549, 96 h, read-out: ED50 A-549; for inhibition at 20 µg/mL: A549, read-out: Inhibition at highest test concentration (in brackets), A-549
[5] = tested on: ileocecal carcinoma (HCT-8); assay: In vitro cytotoxicity, HCT-8; conditions: Homo sapiens; for IC50: HCT-8, 96 h, read-out: ED50 HCT-8; for inhibition at 20 µg/mL: HCT-8, read-out: Inhibition at highest test concentration (in brackets), HCT-8
[6] = tested on: platelet aggregation induced by platelet-activating factor (PAF); assay: Antiplatelet assay, PAF-induced aggregation; assay type: cell-based, rabbit; conditions: for Percent aggregation, PAF: PAF 2 ng/ml
Experimental: as §1, §2

[7] = tested on: platelet aggregation induced by collagen; assay: Antiplatelet assay, collagen-induced aggregation; assay type: cell-based, rabbit
Experimental: as §1, §2

[8] = tested on: platelet aggregation induced by thrombin; assay: Antiplatelet assay, thrombin-induced aggregation; assay type: cell-based, rabbit; conditions: for Percent aggregation, thrombin: thrombin 0.1 U/ml
Experimental: as §1, §2

[9] = 37° C., 1 min preincubation, read-out: IC50, platelet aggregation induced by arachidonic acid (in vitro) (Table 6)
[10] = Oryctolagus cuniculus, Platelet, 37° C., 1 min preincubation, read-out: IC50, platelet aggregation induced by arachidonic acid (in vitro) (Table 6)

## 4-Ethoxycarbonylbutoxy-2-phenylquinazoline [Compound 73]
[1]; [9]
  IC50: 173 µM

## COc1ccccc1C1NC(=O)c2ccccc2N1 (racemic) [Compound 60, 2,3-Dihydro-2-(2′-methoxyphenyl)-4-quinazolinone]
[2]
  IC50: > 20 µg/mL
  inhibition at 20 µg/mL: 32%
[3]
  IC50: 10.2 µg/mL (≈ 40.1 µM)
Melanoma (SKMEL-2)
  IC50: < 20 µg/mL
  Inhibition value of plateau-dose response (in brackets), SKMEL-2: 52%
Breast cancer (MCF-7)
  IC50: > 20 µg/mL
  inhibition at 20 µg/mL: 48%
Bovine brain tubulin
  IC50: > 40 µM
[4]
  IC50: 14.7 µg/mL (≈ 57.8 µM)
Prostate cancer (PC3)
  IC50: > 20 µg/mL
  inhibition at 20 µg/mL: 30%
Bone (HOS)
  IC50: > 20 µg/mL
  inhibition at 20 µg/mL: 38%
Lung carcinoma (A-549)
  IC50: > 20 µg/mL
  inhibition at 20 µg/mL: 44%
[5]
  IC50: > 20 µg/mL
  inhibition at 20 µg/mL: 21%

## COc1ccc(C2NC(=O)c3ccccc3N2)cc1 (racemic) [Compound 62, 2,3-Dihydro-2-(4′-methoxyphenyl)-4-quinazolinone]
[2]
  IC50: > 20 µg/mL
  inhibition at 20 µg/mL: 14%
[3]
  IC50: > 20 µg/mL
[3]; read-out: Inhibition at highest test concentration (in brackets), KB-VIN
  inhibition at 20 µg/mL: 39%
Melanoma (SKMEL-2)
  IC50: > 20 µg/mL
  inhibition at 20 µg/mL: 23%
Breast cancer (MCF-7)
  IC50: > 20 µg/mL
  inhibition at 20 µg/mL: 44%
Bovine brain tubulin
  IC50: > 40 µM
[4]
  IC50: 20 µg/mL (≈ 78.7 µM)
Prostate cancer (PC3)
  IC50: > 20 µg/mL
  inhibition at 20 µg/mL: 14%
Bone (HOS)
  IC50: > 20 µg/mL
  inhibition at 20 µg/mL: 13%
Lung carcinoma (A-549)
  IC50: > 20 µg/mL
  inhibition at 20 µg/mL: 34%
[5]
  IC50: > 20 µg/mL
  inhibition at 20 µg/mL: 19%

## COc1cccc(C2NC(=O)c3ccccc3N2)c1OC (racemic) [Compound 63, 2,3-Dihydro-2-(2′,3′-dimethoxyphenyl)-4-quinazolinone]
[2]
  IC50: > 20 µg/mL
  inhibition at 20 µg/mL: 41%
[3]
  IC50: 8.6 µg/mL (≈ 30.2 µM)
Melanoma (SKMEL-2)
  IC50: < 20 µg/mL
  Inhibition value of plateau-dose response (in brackets), SKMEL-2: 53%
Breast cancer (MCF-7)
  IC50: > 20 µg/mL
  inhibition at 20 µg/mL: 40%
Bovine brain tubulin
  IC50: > 40 µM
[4]
  IC50: 11.4 µg/mL (≈ 40.1 µM)
Prostate cancer (PC3)
  IC50: > 20 µg/mL
  inhibition at 20 µg/mL: 20%
Bone (HOS)
  IC50: > 20 µg/mL
  inhibition at 20 µg/mL: 34%
Lung carcinoma (A-549)
  IC50: > 20 µg/mL
  inhibition at 20 µg/mL: 39%
[5]
  IC50: > 20 µg/mL
  inhibition at 20 µg/mL: 39%

## COc1ccc(C2NC(=O)c3ccccc3N2)c(OC)c1 (racemic) [Compound 64, 2,3-Dihydro-2-(2′,4′-dimethoxyphenyl)-4-quinazolinone]
[2]
  IC50: > 20 µg/mL
  inhibition at 20 µg/mL: 43%
[3]
  IC50: 7.6 µg/mL (≈ 26.7 µM)
Melanoma (SKMEL-2)
  IC50: > 20 µg/mL
  inhibition at 20 µg/mL: 37%
Breast cancer (MCF-7)
  IC50: > 20 µg/mL
  inhibition at 20 µg/mL: 44%
Bovine brain tubulin
  IC50: > 40 µM
[4]
  IC50: 12.5 µg/mL (≈ 44 µM)
Prostate cancer (PC3)
  IC50: > 20 µg/mL
  inhibition at 20 µg/mL: 28%
Bone (HOS)
  IC50: > 20 µg/mL
  inhibition at 20 µg/mL: 40%
Lung carcinoma (A-549)
  IC50: > 20 µg/mL
  inhibition at 20 µg/mL: 43%
[5]
  IC50: > 20 µg/mL
  inhibition at 20 µg/mL: 29%

## COc1ccc(C2NC(=O)c3ccccc3N2)cc1OC (racemic) [Compound 66, 2,3-Dihydro-2-(3′,4′-dimethoxyphenyl)-4-quinazolinone]
[2]
  IC50: > 20 µg/mL
  inhibition at 20 µg/mL: 28%
[3]
  IC50: 16 µg/mL (≈ 56.3 µM)
Melanoma (SKMEL-2)
  IC50: > 20 µg/mL
  inhibition at 20 µg/mL: 24%
Breast cancer (MCF-7)
  IC50: 20 µg/mL (≈ 70.3 µM)
Bovine brain tubulin
  IC50: > 40 µM
[4]
  IC50: 14.6 µg/mL (≈ 51.4 µM)
Prostate cancer (PC3)
  IC50: > 20 µg/mL
  inhibition at 20 µg/mL: 30%
Bone (HOS)
  IC50: > 20 µg/mL
  inhibition at 20 µg/mL: 24%
Lung carcinoma (A-549)
  IC50: > 20 µg/mL
  inhibition at 20 µg/mL: 41%
[5]
  IC50: > 20 µg/mL
  inhibition at 20 µg/mL: 25%

## CC(=O)Oc1ccccc1C(=O)O [Aspirin]
[1]; [10]
  IC50: 20 µM

## COc1nc(-c2ccccc2)nc2ccccc12 [Compound 69, 4-Methoxy-2-phenylquinazoline]
[6]; Table 5
  Inhibition of PAF-induced platelet aggregation in words: poor inhibitors
[6]; compound 20 μg/ml
  Percent aggregation, PAF: 87.9 ± 1.8(4) %
[6]; compound 50 μg/ml
  Percent aggregation, PAF: 38.1 ± 8.3(4) %
[6]; compound 100 μg/ml
  Percent aggregation, PAF: 2.1 ± 1.8(4) %
[7]; Oryctolagus cuniculus, Platelet, collagen 10 μg/ml, read-out: IC50, collagen-induced platelet aggregation (Table 5)
  IC50: 8.47 µM
[7]; Table 5
  Inhibition of collagen-induced platelet aggregation in words: relatively stronger inhibitors
[7]; compound 0.2 μg/ml, collagen 10 μg/ml
  Percent aggregation, collagen: 88.4 ± 1.9(4) %
[7]; compound 0.5 μg/ml, collagen 10 μg/ml
  Percent aggregation, collagen: 76.2 ± 3.7(4) %
[7]; compound 1 μg/ml, collagen 10 μg/ml
  Percent aggregation, collagen: 52.6 ± 7.5(4) %
[7]; compound 2 μg/ml, collagen 10 μg/ml
  Percent aggregation, collagen: 43.0 ± 6.4(4) %
[7]; compound 5 μg/ml, collagen 10 μg/ml
  Percent aggregation, collagen: 31.5 ± 6.4(4) %
[7]; compound 10 μg/ml, collagen 10 μg/ml
  Percent aggregation, collagen: 1.1 ± 0.9(4) %
[7]; compound 20 μg/ml, collagen 10 μg/ml
  Percent aggregation, collagen: 0.0 ± 0.0(4) %
[7]; compound 100 μg/ml, collagen 10 μg/ml
  Percent aggregation, collagen: 0.0 ± 0.0(4) %
[8]; Table 5
  Inhibition of thrombin-induced platelet aggregation in words: poor inhibitors
[8]; compound 20 μg/ml
  Percent aggregation, thrombin: 88.1 ± 0.8(3) %
[8]; compound 50 μg/ml
  Percent aggregation, thrombin: 13.3 ± 5.3(3) %
[8]; compound 100 μg/ml, 37° C., 1 min preincubation
  Percent aggregation, thrombin: 2.8 ± 2.3(3) %
[1]; [10]
  IC50: 7.2 µM
[1]; Oryctolagus cuniculus, Platelet, read-out: IC50, AA-induced platelet aggregation (Table 5)
  IC50: 7.2 µM
[1]; Table 5
  Inhibition of AA-induced platelet aggregation in words: relatively stronger inhibitors
[1]; compound 0.5 μg/ml
  Percent aggregation, AA: 86.0 ± 1.2(4) %
[1]; compound 1 μg/ml
  Percent aggregation, AA: 65.0 ± 8.1(4) %
[1]; compound 2 μg/ml
  Percent aggregation, AA: 35.3 ± 14.9(4) %
[1]; compound 5 μg/ml
  Percent aggregation, AA: 15.0 ± 11.8(4) %
[1]; compound 10 μg/ml
  Percent aggregation, AA: 0.0 ± 0.0(4) %
[1]; compound 100 μg/ml
  Percent aggregation, AA: 0.0 ± 0.0(4) %

## CCOC(=O)COc1nc(-c2ccccc2)nc2ccccc12 [Compound 71, 4-Ethoxycarbonylmethoxy-2-phenylquinazoline]
[1]; [10]
  IC50: 26.9 µM

## CCOC(=O)CCCOc1nc(-c2ccccc2)nc2ccccc12 [Compound 72, 4-Ethoxycarbonylpropoxy-2-phenylquinazoline]
[1]; [10]
  IC50: 30.7 µM

## CCOc1nc(-c2ccccc2OC)nc2ccccc12 [Compound 74, 4-Ethoxy-2-(2′-methoxyphenyl)quinazoline]
[1]; [10]
  IC50: 214 µM

## CCOc1nc(-c2cccc(OC)c2)nc2ccccc12 [Compound 75, 4-Ethoxy-2-(3′-methoxyphenyl)quinazoline]
[1]; [10]
  IC50: 69.3 µM

## CCOc1nc(-c2ccc(OC)cc2)nc2ccccc12 [Compound 76, 4-Ethoxy-2-(4′-methoxyphenyl)quinazoline]
[1]; [10]
  IC50: 5.36 µM

## Cn1c(-c2ccccc2)nc2ccccc2c1=O [Compound 77, N^3-methyl-2-phenyl-4-quinazolinone]
[1]; [10]
  IC50: 183 µM

## CCn1c(-c2ccccc2)nc2ccccc2c1=O [Compound 78, N^3-Ethyl-2-phenyl-4-quinazolinone]
[1]; [10]
  IC50: 184 µM

## COc1ccc2c(c1)c(CC(=O)O)c(C)n2C(=O)c1ccc(Cl)cc1 [Indomethacin]
[1]; [10]
  IC50: 0.25 µM

## N^3-Ethoxycarbonylmethoxy-2-phenyl-4-quinazolinone [Compound 79]
[1]; [9]
  IC50: > 270 µM
